A short description of this data set: Solubility of compound in safety solvent. Format: physicochemical. The following applies: for solubility in CHN: cyclohexanone (CHN); for solubility in PGME: propylene glycol monomethyl ether (PGME); for solubility in PGMEA: propylene glycol monomethyl ether acetate (PGMEA). The method, then:
The compounds obtained in Synthesis Examples 1 to 6 and Synthesis 1 to 4 were evaluated for the solubility in propylene glycol monomethyl ether acetate (PGMEA), propylene glycol monomethyl ether (PGME) and cyclohexanone (CHN).
A: 4.0 wt %≦dissolved amount
B: 1.0 wt %≦dissolved amount<4.0 wt %
C: dissolved amount<1.0 wt %

On to `CC(C)c1ccc(C2c3cc(c(O)cc3O)C(c3ccc(C(C)C)cc3)c3cc(c(O)cc3O)C(c3ccc(C(C)C)cc3)c3cc(c(O)cc3O)C(c3ccc(C(C)C)cc3)c3cc2c(O)cc3O)cc1` (stereo not drawn) [CR-1A], for which the “solubility in CHN” value is “B (1.0 wt %≦dissolved amount<4.0 wt %)”, the “solubility in PGME” value is “B (1.0 wt %≦dissolved amount<4.0 wt %)” and the “solubility in PGMEA” value was “C (dissolved amount<1.0 wt %)”.
Consider `CC(C)Cc1ccc(C2c3cc(c(O)cc3O)C(c3ccc(CC(C)C)cc3)c3cc(c(O)cc3O)C(c3ccc(CC(C)C)cc3)c3cc(c(O)cc3O)C(c3ccc(CC(C)C)cc3)c3cc2c(O)cc3O)cc1` (stereo not drawn) [CR-2A], for which the “solubility in CHN” value is recorded as “B (1.0 wt %≦dissolved amount<4.0 wt %)”, the “solubility in PGME” value is reported as “C (dissolved amount<1.0 wt %)” and the “solubility in PGMEA” value was “C (dissolved amount<1.0 wt %)”.
Take `Oc1cc(O)c2cc1C(c1ccc(-c3ccccc3)cc1)c1cc(c(O)cc1O)C(c1ccc(-c3ccccc3)cc1)c1cc(c(O)cc1O)C(c1ccc(-c3ccccc3)cc1)c1cc(c(O)cc1O)C2c1ccc(-c2ccccc2)cc1` (stereo not drawn) [CR-3A]: the “solubility in CHN” value is given as “B (1.0 wt %≦dissolved amount<4.0 wt %)”, the “solubility in PGME” value was “C (dissolved amount<1.0 wt %)” and the “solubility in PGMEA” value is “C (dissolved amount<1.0 wt %)”.
On to `Oc1cc(O)c2cc1C(c1ccc(C3CCCCC3)cc1)c1cc(c(O)cc1O)C(c1ccc(C3CCCCC3)cc1)c1cc(c(O)cc1O)C(c1ccc(C3CCCCC3)cc1)c1cc(c(O)cc1O)C2c1ccc(C2CCCCC2)cc1` (stereo not drawn) [CR-4A], for which the “solubility in CHN” value is “B (1.0 wt %≦dissolved amount<4.0 wt %)”, the “solubility in PGME” value is recorded as “B (1.0 wt %≦dissolved amount<4.0 wt %)” and the “solubility in PGMEA” value is listed as “C (dissolved amount<1.0 wt %)”.
